In data set [1] the test system is SD rats. Kind of data set: animal or person. Type of data set: in vivo. The settings on record: iv; for minimal effective dose: Rattus norvegicus; for Onset time / Righting feflex duration / Sedation Duration / Minimal effective anesthetic dose: rat, in vivo.
Data set [2] relates to SD rats. The settings on record: rat, in vivo; for MLD: iv.
Where [3] appears, read: read-out: Minimal effective anesthetic dose.
[4] abbreviates: read-out: Minimal effective analgesic dose.

Molecules are shown by their SMILES. Where two headings read alike, the source gives them in different places.
Throughout, for Onset time: test concentration or dose not given here.
Throughout, for Righting feflex duration: test concentration or dose not given here.
Throughout, for Sedation Duration: test concentration or dose not given here.

For the compound `CN1C(=O)N(CCc2cccs2)N=C(c2ccccn2)c2cc(Br)ccc21` [Compound 284], in data set [1] (setting [3]), the minimal effective dose (in general, the smallest amount tested that counted as effective) is 40 mg/kg. In data set [1], the Onset time is recorded as 0.2 min, the Righting feflex duration came out at 20 min and the “Sedation Duration” value is 70.72 min. For the same compound, in data set [2] (SD), the TI was over 1 and the MLD is recorded as over 40 mg/kg.

For the compound `COC(=O)CCC1N=C(c2ccccn2)c2cc([N+](=O)[O-])ccc2N(C)C1=O` (centres unmarked) [Compound 27], in data set [1], the “Minimal effective anesthetic dose” value turned out to be 10.0 mg/kg, the Onset time fell in the range of 0.2 to 0.5 min, the Righting feflex duration was 1.3 to 3.9 min and the “Sedation Duration” value lay within 4.4 to 10.7 min. In data set [2], this compound registered a TI of over 1.8 and an MLD of over 18 mg/kg.

Regarding `Cc1cnc2n1-c1ccc(Br)cc1C(c1ccccn1)=NN2CC(=O)OC1(C)COC1` [Compound 314], the minimal effective dose in data set [1] (setting [3]) is 10 mg/kg. In addition, in data set [1], the Onset time was 0.15 to 0.67 min, the Righting feflex duration is 1.27 to 1.40 min and the “Sedation Duration” value is 11.02 to 18.83 min. In data set [2] (SD), this compound returned a TI of 4 and an MLD of 40 mg/kg.

For `CN1C(=O)C(CO)N=C(c2ccccn2)c2cc(Br)ccc21` (centres unmarked) [Compound 37], in data set [1], the “Minimal effective anesthetic dose” value came out at 5.0 mg/kg, the Onset time fell in the range of 0.3 to 0.6 min, the Righting feflex duration was in the range of 0.7 to 5.8 min and the “Sedation Duration” value is 15.3 to 21.3 min. In data set [2], this compound returned a TI of over 2.0 and an MLD of over 10 mg/kg.

Turning to `Cc1cnc2n1-c1ccc(Br)cc1C(c1ccccn1)=NC2CCOC(=O)C1COC1` (centres unmarked) [Compound 153], in data set [1], the “Minimal effective anesthetic dose” value was 7.5 mg/kg, the Onset time lay in the range of 0.3 to 0.4 min, the Righting feflex duration was 2.9 to 5.8 min and the “Sedation Duration” value is 20.0 to 21.9 min. In data set [2], this compound registered a TI of 2.7 and an MLD of 20 mg/kg.

As for `CN(C)C(=O)OCCN1N=C(c2ccccn2)c2cc(Br)ccc2N(C)C1=O` [Compound 304], the minimal effective dose in data set [1] (setting [3]) came to 5 mg/kg. For the same compound, in data set [1], the Onset time lay in the range of 0.18 to 0.57 min, the Righting feflex duration was 1.92 to 5.35 min and the “Sedation Duration” value fell in the range of 10.57 to 18.57 min. For the same compound, in data set [2] (SD), the TI was found to be 4 and the MLD was 20 mg/kg.

In the case of `CC(=O)OCCC1N=C(c2ccccn2)c2cc(Br)ccc2N(C)C1=O` (centres unmarked) [Compound 115], in data set [1], the “Minimal effective anesthetic dose” value is recorded as 2.5 mg/kg, the Onset time lay within 0.2 to 0.4 min, the Righting feflex duration was in the range of 4.9 to 14.1 min and the “Sedation Duration” value lay within 12.4 to 56.0 min. Also, in data set [2], the TI stood at 16 and the MLD was found to be 40 mg/kg.

With `CC(C)OC(=O)CCN1N=C(c2ccccn2)c2cc(Br)ccc2N(C)C1=O` [Compound 260], the minimal effective dose in data set [1] (setting [4]) came out at 40 mg/kg. For the same compound, the minimal effective dose in data set [1] (setting [3]) was 40 mg/kg. In addition, in data set [1], the Onset time came out at 0.12 min, the Righting feflex duration amounted to 7.52 min and the “Sedation Duration” value is 55.52 min. In data set [2] (SD), this compound registered a TI of 1.4 and an MLD of 55 mg/kg.

As for `C#CC(C)(C)OC(=O)CCC1N=C(c2ccccn2)c2cc([N+](=O)[O-])ccc2N(C)C1=O` (centres unmarked) [Compound 32], in data set [1], the “Minimal effective anesthetic dose” value worked out at 5.0 mg/kg, the Onset time lay within 0.2 to 0.4 min, the Righting feflex duration is 1.8 to 7.7 min and the “Sedation Duration” value was 21.1 to 45.7 min. For the same compound, in data set [2], the TI came out at 6.0 and the MLD came out at 30 mg/kg.

For `Cc1cnc2n1-c1ccc(Br)cc1C(c1ccccn1)=NN2COC(=O)CCCl` [Compound 319], the minimal effective dose in data set [1] (setting [3]) came to 7.5 mg/kg. Further, in data set [1], the Onset time was in the range of 0.38 to 0.48 min, the Righting feflex duration was 7.58 to 8.00 min and the “Sedation Duration” value is 21.82 to 52.53 min. In addition, in data set [2] (SD), the TI is over 1.3 and the MLD is on record as over 10 mg/kg.

For `CC(F)C(=O)OCCN1N=C(c2ccccn2)c2cc(Br)ccc2N(C)C1=O` (centres unmarked) [Compound 303], in data set [1] (setting [3]), the minimal effective dose was found to be 20 mg/kg. In data set [1], the Onset time amounted to 0.43 min, the Righting feflex duration is 14.30 min and the “Sedation Duration” value was 74.88 min. In data set [2] (SD), this compound returned a TI of over 1 and an MLD of over 20 mg/kg.

`CCN(C)C(=O)OCN1N=C(c2ccccn2)c2cc(Br)ccc2N(C)C1=O` [Compound 292]: in data set [1] (setting [4]), the minimal effective dose turned out to be 20 mg/kg. In addition, the minimal effective dose in data set [1] (setting [3]) worked out at 20 mg/kg. In addition, in data set [1], the Onset time is 0.40 min, the Righting feflex duration was found to be 2.75 min and the “Sedation Duration” value was 46.82 min. In addition, in data set [2] (SD), the TI is 1.5 and the MLD came to 30 mg/kg.

`C=C1N=C(c2ccccn2)c2cc(Br)ccc2N(C)C1=O` [Compound 36]: in data set [1], the “Minimal effective anesthetic dose” value is on record as 10.0 mg/kg, the Onset time lay within 0.4 to 0.9 min, the Righting feflex duration was 0.7 to 4.1 min and the “Sedation Duration” value fell in the range of 8.6 to 14.7 min. Also, in data set [2], the TI was determined as 1.9 and the MLD is 18.7 mg/kg.

On to `Cc1cnc2n1-c1ccc(Br)cc1C(c1ccccn1)=NN2CC(=O)OC1COC1` [Compound 311], for which, in data set [1] (setting [4]), the minimal effective dose came out at 10 mg/kg. Moreover, the minimal effective dose in data set [1] (setting [3]) amounted to 5 mg/kg. Besides, in data set [1], the Onset time fell in the range of 0.17 to 0.48 min, the Righting feflex duration fell in the range of 2.28 to 12.30 min and the “Sedation Duration” value fell in the range of 25.88 to 54.23 min. For the same compound, in data set [2] (SD), the TI is 6 and the MLD is given as 30 mg/kg.

As for `CCOC(=O)CN1N=C(c2ccccn2)C(Br)=CN(C)C1=O` [Compound 346], the minimal effective dose in data set [1] (setting [4]) was 18.4 mg/kg. The minimal effective dose in data set [1] (setting [3]) came to 18.4 mg/kg. In data set [1], the Onset time was 0.57 min, the Righting feflex duration amounted to 2.63 min and the “Sedation Duration” value is 45.10 min. In data set [2] (SD), this compound showed a TI of over 1 and an MLD of over 18.4 mg/kg.

In the case of `CC(C)N(C)C(=O)OCN1N=C(c2ccccn2)c2cc(Br)ccc2N(C)C1=O` [Compound 293], in data set [1] (setting [4]), the minimal effective dose stood at 15 mg/kg. In addition, the minimal effective dose in data set [1] (setting [3]) was 15 mg/kg. In data set [1], the Onset time is listed as 0.95 min, the Righting feflex duration came to 4.20 min and the “Sedation Duration” value turned out to be 82.85 min. Moreover, in data set [2] (SD), the TI was 1.3 and the MLD stood at 20 mg/kg.

Take `CC(C)OC(=O)CC1N=C(c2ccccn2)c2cc(Br)ccc2N(C)C1=O` (centres unmarked) [Compound 114]: in data set [1], the “Minimal effective anesthetic dose” value was 0.5 mg/kg, the Onset time lay within 0.4 to 1.1 min, the Righting feflex duration lay within 0.8 to 27.6 min and the “Sedation Duration” value was 16.5 to 140.3 min. For the same compound, in data set [2], the TI came to 40.0 and the MLD is on record as 20 mg/kg.

In the case of `Cc1cnc2n1-c1ccc(Br)cc1C(c1ccccn1)=NC2CCOC(=O)CCl` (centres unmarked) [Compound 148], in data set [1], the “Minimal effective anesthetic dose” value is on record as 1.8 mg/kg, the Onset time was 0.2 to 1.1 min, the Righting feflex duration was 1.0 to 60.8 min and the “Sedation Duration” value lay within 20.1 to 82.4 min. In data set [2], this compound yielded a TI of 33.3 and an MLD of 60 mg/kg.

In the case of `CCN1C(=O)N(CC(=O)OC(C)C)N=C(c2ccccn2)c2cc(Br)ccc21` [Compound 256], in data set [1] (setting [4]), the minimal effective dose is 10 mg/kg. The minimal effective dose in data set [1] (setting [3]) amounted to 5 mg/kg. In data set [1], the Onset time fell in the range of 0.17 to 0.50 min, the Righting feflex duration was in the range of 0.32 to 26.03 min and the “Sedation Duration” value lay within 13.38 to 59.65 min. For the same compound, in data set [2] (SD), the TI came out at 6 and the MLD was determined as 30 mg/kg.

Consider `CON(C)C(=O)OCN1N=C(c2ccccn2)c2cc(Br)ccc2N(C)C1=O` [Compound 294], for which, in data set [1] (setting [3]), the minimal effective dose was determined as 15 mg/kg. Besides, in data set [1], the Onset time lay in the range of 0.52 to 0.55 min, the Righting feflex duration fell in the range of 3.35 to 6.47 min and the “Sedation Duration” value is 28.68 to 40.58 min. In addition, in data set [2] (SD), the TI is on record as over 1.3 and the MLD is over 20 mg/kg.

Turning to `CC(=O)OCCC1N=C(c2ccccn2)c2cc(Br)ccc2-n2c(C)cnc21.O=S(=O)(O)c1ccccc1` (centres unmarked) [Compound 145D], in data set [1], the “Minimal effective anesthetic dose” value was determined as 7.5 mg/kg, the Onset time lay in the range of 0.2 to 0.5 min, the Righting feflex duration lay within 1.7 to 19.9 min and the “Sedation Duration” value was 23.0 to 63.0 min. In data set [2], this compound registered a TI of over 2.3 and an MLD of over 16.9 mg/kg.

On to `CN1C(=O)C(CCC(=O)OC2COC2)N=C(c2ccccn2)c2cc(Br)ccc21` (centres unmarked) [Compound 16], for which, in data set [1], the “Minimal effective anesthetic dose” value turned out to be 5.0 mg/kg, the Onset time lay in the range of 0.2 to 0.5 min, the Righting feflex duration lay within 0.6 to 1.7 min and the “Sedation Duration” value was 3.2 to 5.3 min. In addition, in data set [2], the TI was over 4.5 and the MLD is recorded as over 22.5 mg/kg.

With `CC(C)OC(=O)CN1C2=NCCN2N=C(c2ccccn2)c2cc(Br)ccc21` [Compound 325], in data set [1] (setting [4]), the minimal effective dose was found to be 40 mg/kg. In data set [1] (setting [3]), the minimal effective dose was found to be 40 mg/kg. In data set [1], the Onset time was 0.65 min, the Righting feflex duration is on record as 3.65 min and the “Sedation Duration” value was 59.22 min. Further, in data set [2] (SD), the TI is given as over 1 and the MLD is recorded as over 40 mg/kg.

Regarding `CCC(C)(C)OC(=O)CN1N=C(c2ccccn2)c2cc(Br)ccc2N(C)C1=O` [Compound 255], the minimal effective dose in data set [1] (setting [4]) was found to be 20 mg/kg. In addition, in data set [1] (setting [3]), the minimal effective dose turned out to be 15 mg/kg. Besides, in data set [1], the Onset time was 0.53 to 0.97 min, the Righting feflex duration lay within 12.27 to 13.62 min and the “Sedation Duration” value fell in the range of 43.43 to 66.14 min. In data set [2] (SD), this compound displayed a TI of 2 and an MLD of 30 mg/kg.

Take `CCOc1nonc1CCN1N=C(c2ccccn2)c2cc(Br)ccc2N(C)C1=O` [Compound 274]: the minimal effective dose in data set [1] (setting [3]) turned out to be 27.4 mg/kg. Moreover, in data set [1], the Onset time was found to be 0.18 min, the Righting feflex duration was determined as 4.57 min and the “Sedation Duration” value is 25.87 min. In data set [2] (SD), this compound registered a TI of over 1 and an MLD of over 27.4 mg/kg.

Values taken from patent EP4711368A1 (priority 2023, dated 2024).
